The term inhibition denotes the relative decrease from the control value, in per cent.

The target of assay [1] is T1, 5-HT6 receptor (Homo sapiens, UniProt P50406).
T1 construct: purchased PerkinElmer
Briefly: Radioligand binding assay, serotoninergic 5-HT6 receptors.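 Further: test compound at 1 µM.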 Conditions: binding assay result in %, Table 5a. The text has this:
(§1) The specific ligand binding to the receptors is defined as the difference between the total binding and the non-specific binding determined in the presence of the excess of unlabelled ligand.
(§2) The results are expressed as a percent of control specific binding ((measured specific binding/control specific binding)×100) and as a percent inhibition of control specific binding (100−((measured specific binding/control specific binding)×100)) obtained in the presence of the test compounds. The specific ligand binding to the receptors is defined as the difference between the total binding and the nonspecific binding determined in the presence of an excess of unlabelled ligand. Scintillation counting was the method of detection of ligand binding. The IC50 values (concentration causing a half-maximal inhibition of control specific binding) were determined by non-linear regression analysis of the competition curves generated with mean replicate values using Hill equation curve fitting (Y=D+[(A−D)/(1+(C/C50)nH)], where Y=specific binding, D=minimum specific binding, A=maximum specific binding, C=compound concentration, C50=IC50, and nH=slope factor). This analysis was performed using a software developed at Cerep (Hill software) and validated by comparison with data generated by the commercial software SigmaPlot® 4.0 for Windows® (© 1997 by SPSS Inc.). The inhibition constants (Ki) were calculated using the Cheng Prusoff equation (Ki=IC50/(1+(L/KD)), where L=concentration of radioligand in the assay, and KD=affinity of the radioligand for the receptor). A scatchard plot was used to determine the Kd.
(§3) Experimental conditions for tests are given in Table 4, and results of tests for representative compounds of the invention are given in Table 5a and 5b (receptors 5-HT1A, 5-HT2A, 5-HT6 and 5-HT7) and in Table 6 (receptors 5-HT2C).
5-HT6: Bryan L. Roth. Assay Protocol Book. University of North Carolina At Chapel Hill. National Institute of Mental Health. Psychoactive Drug Screening Program. Available on-line at 31 Aug. 2008: http://pdsp.med.unc.edu/UNC-CH %20Protocol%20Book.pdf

Assay [2] deals with T2, 5-HT1A receptor (rat hippocampus) (Rattus norvegicus, UniProt P19327).
T2 construct: hippocampus; from tissue; host or cells: rat hippocampus
T2 sequence (P19327 1-422): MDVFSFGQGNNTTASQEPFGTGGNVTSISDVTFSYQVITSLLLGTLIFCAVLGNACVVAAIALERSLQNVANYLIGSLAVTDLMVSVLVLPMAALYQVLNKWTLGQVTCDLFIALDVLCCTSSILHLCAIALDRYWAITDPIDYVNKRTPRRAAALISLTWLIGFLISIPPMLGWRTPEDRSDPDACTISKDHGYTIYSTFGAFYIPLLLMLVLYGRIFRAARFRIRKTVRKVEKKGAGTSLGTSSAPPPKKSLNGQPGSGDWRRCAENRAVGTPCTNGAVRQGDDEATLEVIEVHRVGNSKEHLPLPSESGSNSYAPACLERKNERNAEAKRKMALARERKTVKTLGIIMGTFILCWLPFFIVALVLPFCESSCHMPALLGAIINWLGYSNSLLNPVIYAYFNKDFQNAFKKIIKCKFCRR
Put plainly: Radioligand binding assay, serotoninergic 5-HT1A receptors.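 Further: test compound at 1 µM.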 Conditions: binding assay result in %, Table 5a.
Description: as §1, §2, §3

Assay [3] addresses dopaminergic receptors D2 (Homo sapiens, UniProt P14416). Briefly: Radioligand binding assay, dopaminergic D2 receptors. Conditions: binding assay, test compound 1×10^−6 M.
Description: as §1, §2
(§4) Experimental conditions for tests are given in Table 1, the results of tests for representative compounds are given in Tables 2a and 2b (receptors D2 and D3) and in Table 3 (receptors D4).

The target in assay [4] is T3, 5-HT2A receptor (Homo sapiens, UniProt P28223).
T3 construct: purchased PerkinElmer
T3 sequence (P28223 whole entry): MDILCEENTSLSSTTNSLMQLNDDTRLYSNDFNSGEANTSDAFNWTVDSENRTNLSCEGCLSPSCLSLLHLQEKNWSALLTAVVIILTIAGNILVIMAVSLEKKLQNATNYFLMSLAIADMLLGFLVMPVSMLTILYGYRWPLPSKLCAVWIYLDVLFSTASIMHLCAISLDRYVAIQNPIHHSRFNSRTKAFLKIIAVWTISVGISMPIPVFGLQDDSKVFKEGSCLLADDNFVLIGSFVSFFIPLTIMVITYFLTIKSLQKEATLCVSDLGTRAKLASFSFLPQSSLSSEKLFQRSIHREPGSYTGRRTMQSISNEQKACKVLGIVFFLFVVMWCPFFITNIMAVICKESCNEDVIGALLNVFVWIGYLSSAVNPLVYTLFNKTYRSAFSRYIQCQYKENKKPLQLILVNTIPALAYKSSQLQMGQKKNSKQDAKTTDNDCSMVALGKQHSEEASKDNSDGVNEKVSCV
Put plainly: Radioligand binding assay, serotoninergic 5-HT2A receptors. Conditions: binding assay result in %, Table 5a.
Description: as §1, §2
5-HT2A: Bryan L. Roth. Assay Protocol Book. University of North Carolina At Chapel Hill. National Institute of Mental Health. Psychoactive Drug Screening Program. Available on-line at 31 Aug. 2008: http://pdsp.med.unc.edu/UNC-CH%20Protocol%20Book.pdf

Assay [5] concerns the target dopaminergic receptors D3 (Homo sapiens, UniProt P35462). Briefly: Radioligand binding assay, dopaminergic D3 receptors. Particulars: test compound 1×10^−6 M.
Description: as §1, §2, §4

Assay [6] has as its target T4, 5-HT7 receptor (Homo sapiens, UniProt P34969).
T4 construct: purchased PerkinElmer
Put plainly: Radioligand binding assay, serotoninergic 5-HT7 receptors.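 Further: test compound at 1 µM.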 Particulars: binding assay result in %, Table 5a.
Description: as §1, §2, §3
5-HT7: Bryan L. Roth. Assay Protocol Book. University of North Carolina At Chapel Hill. National Institute of Mental Health. Psychoactive Drug Screening Program. Available on-line at 31 Aug. 2008: http://pdsp.med.unc.edu/UNC-CH %20Protocol%20Book.pdf

For assay [7], the target named is T5, serotonin transporter (SERT) (Homo sapiens, UniProt P31645).
T5 construct: expressed in transfected cells; host or cells: CHO cells
T5 sequence (P31645 whole entry): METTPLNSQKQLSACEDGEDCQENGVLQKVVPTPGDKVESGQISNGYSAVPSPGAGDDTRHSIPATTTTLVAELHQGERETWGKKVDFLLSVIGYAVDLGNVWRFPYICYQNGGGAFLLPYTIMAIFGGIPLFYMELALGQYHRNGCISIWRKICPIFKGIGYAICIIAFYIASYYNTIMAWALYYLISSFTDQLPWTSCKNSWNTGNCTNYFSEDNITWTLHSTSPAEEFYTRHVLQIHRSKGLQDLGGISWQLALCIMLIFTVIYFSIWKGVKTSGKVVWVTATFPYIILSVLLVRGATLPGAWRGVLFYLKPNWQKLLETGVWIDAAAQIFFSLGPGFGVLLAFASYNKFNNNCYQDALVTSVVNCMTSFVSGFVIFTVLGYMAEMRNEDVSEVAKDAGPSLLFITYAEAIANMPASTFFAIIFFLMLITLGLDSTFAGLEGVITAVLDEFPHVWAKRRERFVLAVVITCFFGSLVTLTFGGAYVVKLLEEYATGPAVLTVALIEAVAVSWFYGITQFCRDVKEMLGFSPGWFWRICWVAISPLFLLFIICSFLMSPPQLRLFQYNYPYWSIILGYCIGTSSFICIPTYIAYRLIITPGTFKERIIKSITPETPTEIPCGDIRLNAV
Briefly: Radioligand binding assay, serotonin transporter (SERT). Conditions: binding assay, test compound 1×10^−6 M.
Description: as §1, §2
Experimental conditions for tests are given in Table 12, and results of tests for representative compounds are given in Tables 13a and 13b.

dopaminergic receptors D3, sequence (P35462 whole entry): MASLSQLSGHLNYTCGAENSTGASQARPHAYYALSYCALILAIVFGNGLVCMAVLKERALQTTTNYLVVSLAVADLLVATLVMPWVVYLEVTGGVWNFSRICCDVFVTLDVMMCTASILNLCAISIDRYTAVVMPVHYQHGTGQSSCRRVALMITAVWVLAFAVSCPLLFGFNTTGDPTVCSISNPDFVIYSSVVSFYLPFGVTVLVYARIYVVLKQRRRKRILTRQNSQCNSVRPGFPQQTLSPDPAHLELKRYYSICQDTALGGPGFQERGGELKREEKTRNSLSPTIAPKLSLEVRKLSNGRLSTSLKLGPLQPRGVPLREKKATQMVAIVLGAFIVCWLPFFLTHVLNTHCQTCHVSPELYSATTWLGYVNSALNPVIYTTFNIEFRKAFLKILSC
T4 sequence (P34969 whole entry): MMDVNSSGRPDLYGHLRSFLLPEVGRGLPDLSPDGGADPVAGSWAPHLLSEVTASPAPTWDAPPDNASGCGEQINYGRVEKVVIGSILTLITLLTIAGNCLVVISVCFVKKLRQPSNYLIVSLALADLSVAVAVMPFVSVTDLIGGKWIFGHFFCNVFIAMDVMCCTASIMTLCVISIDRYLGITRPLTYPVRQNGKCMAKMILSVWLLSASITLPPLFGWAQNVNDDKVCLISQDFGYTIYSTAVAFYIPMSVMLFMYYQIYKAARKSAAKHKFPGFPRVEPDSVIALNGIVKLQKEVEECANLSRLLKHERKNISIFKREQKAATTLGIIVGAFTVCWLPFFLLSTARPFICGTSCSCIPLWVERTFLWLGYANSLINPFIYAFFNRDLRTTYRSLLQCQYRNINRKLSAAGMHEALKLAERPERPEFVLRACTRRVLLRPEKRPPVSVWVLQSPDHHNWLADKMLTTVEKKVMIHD
T1 sequence (P50406 whole entry): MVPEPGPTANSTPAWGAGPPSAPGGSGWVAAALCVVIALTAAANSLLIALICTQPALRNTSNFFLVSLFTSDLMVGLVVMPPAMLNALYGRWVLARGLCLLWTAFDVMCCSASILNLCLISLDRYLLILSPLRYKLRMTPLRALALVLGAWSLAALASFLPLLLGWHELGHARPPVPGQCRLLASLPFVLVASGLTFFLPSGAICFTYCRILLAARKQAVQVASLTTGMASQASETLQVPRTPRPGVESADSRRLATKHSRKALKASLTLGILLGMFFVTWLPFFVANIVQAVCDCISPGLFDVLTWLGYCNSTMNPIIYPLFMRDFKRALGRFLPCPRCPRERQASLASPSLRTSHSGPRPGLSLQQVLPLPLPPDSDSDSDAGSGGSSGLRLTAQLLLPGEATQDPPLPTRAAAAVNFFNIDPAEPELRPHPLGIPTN
dopaminergic receptors D2, sequence (P14416 whole entry): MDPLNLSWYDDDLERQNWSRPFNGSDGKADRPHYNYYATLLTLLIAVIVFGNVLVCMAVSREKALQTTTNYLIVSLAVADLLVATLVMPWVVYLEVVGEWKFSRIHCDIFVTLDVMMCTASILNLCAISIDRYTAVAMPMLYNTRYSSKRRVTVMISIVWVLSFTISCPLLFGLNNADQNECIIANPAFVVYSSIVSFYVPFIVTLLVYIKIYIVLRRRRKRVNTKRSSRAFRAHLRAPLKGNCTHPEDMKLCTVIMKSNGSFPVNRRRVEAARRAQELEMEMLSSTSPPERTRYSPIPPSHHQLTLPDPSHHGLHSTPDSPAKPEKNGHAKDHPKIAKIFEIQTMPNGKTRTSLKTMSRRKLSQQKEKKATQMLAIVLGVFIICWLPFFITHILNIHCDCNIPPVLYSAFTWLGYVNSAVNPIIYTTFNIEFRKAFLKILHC

As to “3-tert-Butyl-N-[[1-[3-(6-fluoro-1,2-benzoxazol-3-yl)propyl]pyrrolidin-3-yl]methyl]benzenesulphonamide [Compound 249]”, the “5-HT6 [%]” value in assay [1] came out at 58%. The “5-HT1A [%]” value in assay [2] came to 23%. In addition, the “D2 [%]” value in assay [3] is recorded as 4%. In addition, the “5-HT2A [%]” value in assay [4] is reported as 79%. In assay [5], the “D3 [%]” value amounted to 36%. Besides, in assay [6], the “5-HT7 [%]” value stood at 87%. Also, the “SERT [%]” value in assay [7] was 28%.

“4-Fluoro-N-[[1-[3-(6-fluoro-1,2-benzoxazol-3-yl)propyl]azetidin-3-yl]methyl]benzenesulphonamide [Compound 147]”: the “5-HT6 [%]” value in assay [1] is on record as 86%. In addition, the “5-HT1A [%]” value in assay [2] stood at 60%. In addition, the “D2 [%]” value in assay [3] is 88%. In addition, the “5-HT2A [%]” value in assay [4] came out at 95%. In assay [5], the “D3 [%]” value came to 74%. Moreover, in assay [6], the “5-HT7 [%]” value is reported as 89%. In addition, in assay [7], the “SERT [%]” value worked out at 24%.

With `O=S(=O)(NC1CCN(CCCc2noc3cc(F)ccc23)C1)c1ccc(Br)cc1` (stereo not shown) [Compound 10, 4-Bromo-N-[1-[3-(6-fluoro-1,2-benzoxazol-3-yl)propyl]pyrrolidin-3-yl]benzenesulphonamide], the inhibition at 1 µM was 85% in assay [1]; 20% in assay [2]; 99% in assay [3]; 96% in assay [4]; 49% in assay [5]; 86% in assay [6]. Moreover, in assay [7], the inhibition at 1 µM is -2%.

Turning to `CC(C)(C)c1ccc(S(=O)(=O)NC2CCN(CCCc3noc4cc(F)ccc34)C2)cc1` (stereo not shown) [Compound 14, 4-tert-Butyl-N-[1-[3-(6-fluoro-1,2-benzoxazol-3-yl)propyl]pyrrolidin-3-yl]benzenesulphonamide], the inhibition at 1 µM in assay [1] was 82%; in assay [2], 24%; in assay [3], 100%; in assay [4], 80%; in assay [5] it was 90%; in assay [6], 76%. Besides, the inhibition at 1 µM in assay [7] was -3%.

With `COc1cccc(S(=O)(=O)NC2CCN(CCCc3noc4cc(F)ccc34)C2)c1` (stereo not shown) [Compound 17, N-[1-[3-(6-Fluoro-1,2-benzoxazol-3-yl)propyl]pyrrolidin-3-yl]-3-methoxybenzenesulphonamide], the inhibition at 1 µM came to 76% in assay [1]; 23% in assay [2]; 80% in assay [3]; 94% in assay [4]; 20% in assay [5]; 80% in assay [6]. In assay [7], the inhibition at 1 µM turned out to be 52%.

Consider `O=S(=O)(NC1CCN(CCCc2noc3cc(F)ccc23)CC1)c1ccccc1` [Compound 32, N-[1-[3-(6-Fluoro-1,2-benzoxazol-3-yl)propyl]-4-piperidine]benzene-sulphonamide], for which the “5-HT6 [%]” value in assay [1] stood at 63%. Further, the “5-HT1A [%]” value in assay [2] was found to be 37%. Further, the “D2 [%]” value in assay [3] was 63%. Also, the “5-HT2A [%]” value in assay [4] is on record as 83%. For the same compound, in assay [5], the “D3 [%]” value worked out at 57%. Besides, the “5-HT7 [%]” value in assay [6] is reported as 92%. Also, in assay [7], the “SERT [%]” value turned out to be 5%.

As to `Cc1cccc(S(=O)(=O)NC2CCN(CCCc3noc4cc(F)ccc34)CC2)c1` [Compound 33, N-[1-[3-(6-Fluoro-1,2-benzoxazol-3-yl)propyl]-4-piperidine]-3-methyl-benzenesulphonamide], the “5-HT6 [%]” value in assay [1] is recorded as 91%. Also, in assay [2], the “5-HT1A [%]” value was 22%. For the same compound, the “D2 [%]” value in assay [3] worked out at 54%. Also, the “5-HT2A [%]” value in assay [4] is 97%. Moreover, the “D3 [%]” value in assay [5] came out at 58%. The “5-HT7 [%]” value in assay [6] came out at 100%. Besides, the “SERT [%]” value in assay [7] is recorded as −4%.

For `O=S(=O)(NCC1CN(CCCc2noc3cc(F)ccc23)C1)c1ccc(Cl)cc1` [Compound 136, 4-Chloro-N-[[1-[3-(6-fluoro-1,2-benzoxazol-3-yl)propyl]azetidin-3-yl]methyl]benzenesulphonamide], the inhibition at 1 µM worked out at 72% in assay [1]; 35% in assay [2]; 62% in assay [3]; 82% in assay [4]; 57% in assay [5]; 80% in assay [6]. The inhibition at 1 µM in assay [7] was 9%.

With `O=S(=O)(NCC1CN(CCCc2noc3cc(F)ccc23)C1)c1cccc(Cl)c1` [Compound 137, 3-Chloro-N-[[1-[3-(6-fluoro-1,2-benzoxazol-3-yl)propyl]azetidin-3-yl]methyl]benzenesulphonamide], the inhibition at 1 µM in assay [1] stood at 14%; in assay [2] it was 14%; in assay [3], 76%; in assay [4], 62%; in assay [5], 50%; in assay [6], 82%. Further, the inhibition at 1 µM in assay [7] is -5%.

For `CC(C)(C)c1ccc(S(=O)(=O)NCC2CN(CCCc3noc4cc(F)ccc34)C2)cc1` [Compound 141, 4-tert-Butyl-N-[[1-[3-(6-fluoro-1,2-benzoxazol-3-yl)propyl]azetidin-3-yl]methyl]benzenesulphonamide], the inhibition at 1 µM amounted to 92% in assay [1]; 9% in assay [2]; 74% in assay [3]; 85% in assay [4]; 58% in assay [5]; 80% in assay [6]. In assay [7], the inhibition at 1 µM was -10%.

For `Cc1cccc(S(=O)(=O)NCC2CN(CCCc3noc4cc(F)ccc34)C2)c1` [Compound 142, N-[[1-[3-(6-Fluoro-1,2-benzoxazol-3-yl)propyl]azetidin-3-yl]methyl]-3-methyl-benzenesulphonamide], the inhibition at 1 µM in assay [1] is 37%; in assay [2], 29%; in assay [3], 58%; in assay [4], 77%; in assay [5], 45%; in assay [6], 87%. In assay [7], the inhibition at 1 µM is -4%.

As to `O=S(=O)(NCC1CN(CCCc2noc3cc(F)ccc23)C1)c1cccc(O)c1` [Compound 149, N-[[1-[3-(6-Fluoro-1,2-benzoxazol-3-yl)propyl]azetidin-3-yl]methyl]-3-hydroxy-benzenesulphonamide], the inhibition at 1 µM in assay [1] was 71%; in assay [2], 82%; in assay [3] it was 91%; in assay [4] it was 96%; in assay [5] it was 39%; in assay [6], 113%. In addition, the inhibition at 1 µM in assay [7] stood at 22%.

Regarding `O=S(=O)(NCC1CN(CCCc2noc3cc(F)ccc23)C1)c1cc2ccccc2s1` [Compound 153, N-[[1-[3-(6-Fluoro-1,2-benzoxazol-3-yl)propyl]azetidin-3-yl]methyl]-benzothiophene-2-sulphonamide], the inhibition at 1 µM in assay [1] was 80%; in assay [2], 55%; in assay [3], 82%; in assay [4] it was 96%; in assay [5], 61%; in assay [6] it was 86%. Moreover, in assay [7], the “SERT [%]” value was found to be 21%.

(Values after patent US20140135310A1, “SULPHONAMIDE DERIVATIVES OF ALICYCLIC AMINES FOR THE TREATMENT OF CENTRAL NERVOUS SYSTEM DISEASES” (Adamed Sp. z o.o., priority 2011, published 2014).)
